# Results reported in ChEMBL document CHEMBL1134484, “Homology modeling using multiple molecular dynamics simulations and docking studies of the human androgen receptor ligand binding domain bound to testosterone and nonsteroidal ligands” (J Med Chem, 2001).
# Assays:
# [1] = target: T1, Androgen receptor (Homo sapiens, UniProt P10275); assay: Binding affinity against human androgen receptor (hAR) in competitive binding assay; NB means No binding
# T1 sequence (P10275 whole entry): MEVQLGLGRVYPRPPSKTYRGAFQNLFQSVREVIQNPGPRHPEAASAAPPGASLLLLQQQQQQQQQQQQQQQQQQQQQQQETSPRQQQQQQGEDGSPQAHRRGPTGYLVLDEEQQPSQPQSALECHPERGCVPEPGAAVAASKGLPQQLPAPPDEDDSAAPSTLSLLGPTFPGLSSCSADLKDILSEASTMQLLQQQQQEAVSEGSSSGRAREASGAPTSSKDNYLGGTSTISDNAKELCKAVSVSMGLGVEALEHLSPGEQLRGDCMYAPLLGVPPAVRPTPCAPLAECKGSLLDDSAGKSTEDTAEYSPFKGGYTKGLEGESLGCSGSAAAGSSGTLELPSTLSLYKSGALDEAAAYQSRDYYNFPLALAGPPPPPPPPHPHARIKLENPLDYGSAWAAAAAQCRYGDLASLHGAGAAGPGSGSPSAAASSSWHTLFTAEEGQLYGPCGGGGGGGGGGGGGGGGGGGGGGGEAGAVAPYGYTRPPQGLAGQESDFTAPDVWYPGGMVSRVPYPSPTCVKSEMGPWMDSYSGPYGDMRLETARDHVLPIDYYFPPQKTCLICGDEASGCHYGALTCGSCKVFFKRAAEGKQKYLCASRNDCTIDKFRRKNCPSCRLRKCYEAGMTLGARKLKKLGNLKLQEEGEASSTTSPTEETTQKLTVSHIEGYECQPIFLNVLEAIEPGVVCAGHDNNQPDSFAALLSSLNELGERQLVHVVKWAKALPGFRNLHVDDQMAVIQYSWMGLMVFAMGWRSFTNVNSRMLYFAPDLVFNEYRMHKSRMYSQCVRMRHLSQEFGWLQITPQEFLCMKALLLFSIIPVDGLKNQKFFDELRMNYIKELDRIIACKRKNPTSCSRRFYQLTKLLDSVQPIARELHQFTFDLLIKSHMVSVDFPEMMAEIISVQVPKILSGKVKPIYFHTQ
# [2] = target: T1, Androgen receptor; assay: Binding affinity against human androgen receptor (hAR) in competitive binding assay
Structure (SMILES),Ki [1],Ki [2] [nM]
C[C@@]1(C(=O)Nc2ccc([N+](=O)[O-])c(C(F)(F)F)c2)CO1,Not Active,–
C[C@](O)(CBr)C(=O)Nc1ccc(N)c(C(F)(F)F)c1,–,80.9
